Measured values published in ChEMBL document CHEMBL3244137, “Synthesis and antimicrobial activity of azasteroid-type compounds and related systems. Effect of hydrophilic and lipophilic groups on activity” (1977).

Columns and labels:
Format in all cases: functional
Bacillus subtilis [1] = experiment: Growth inhibition of Bacillus subtilis at 5 ug/ml; settings: for inhibition at 5 µg/mL: Bacillus subtilis
Pseudomonas fluorescens [2] = experiment: Growth inhibition of Pseudomonas fluorescens at 91 ug/ml
KB [3] = experiment: Plating efficiency of human KB cells at 25 ug/ml
Bacillus subtilis [4] = experiment: Growth inhibition of Bacillus subtilis at 91 ug/ml
KB [5] = experiment: Growth inhibition of human KB cells at 25 ug/ml; settings: read-out: GI
KB [6] = experiment: Plating efficiency of human KB cells at 12.5 ug/ml
KB [7] = experiment: Plating efficiency of human KB cells at 150 ug/ml
KB [8] = experiment: Growth inhibition of human KB cells at 12.5 ug/ml; settings: read-out: GI
KB [9] = experiment: Growth inhibition of human KB cells at 150 ug/ml; settings: read-out: GI
Bacillus subtilis [10] = experiment: Growth inhibition of Bacillus subtilis at 45 ug/ml
Pseudomonas fluorescens [11] = experiment: Growth inhibition of Pseudomonas fluorescens at 45 ug/ml
Pseudomonas fluorescens [12] = experiment: Growth inhibition of Pseudomonas fluorescens at 50 ug/ml
Bacillus subtilis [13] = experiment: Growth inhibition of Bacillus subtilis at 50 ug/ml
KB [14] = experiment: Growth inhibition of human KB cells at 50 ug/ml; settings: read-out: GI
KB [15] = experiment: Plating efficiency of human KB cells at 50 ug/ml
Bacillus subtilis [16] = experiment: Growth inhibition of Bacillus subtilis at 90 ug/ml
Pseudomonas fluorescens [17] = experiment: Growth inhibition of Pseudomonas fluorescens at 90 ug/ml
Pseudomonas fluorescens [18] = experiment: Growth inhibition of Pseudomonas fluorescens at 5 ug/ml
Bacillus subtilis [19] = experiment: Growth inhibition of Bacillus subtilis at 10 ug/ml
Bacillus subtilis [20] = experiment: Growth inhibition of Bacillus subtilis at 20 ug/ml

In the case of `COc1ccc2c(c1)CCc1sc(N)nc1-2`, the inhibition at 5 µg/mL (Bacillus subtilis [1]) is reported as 40%.
`COc1ccc2c(c1)CCc1cnoc1-2` gave an inhibition at 91 µg/mL (Pseudomonas fluorescens [2]) of 0%, an Activity (KB [3]) of 67% and an inhibition at 91 µg/mL (Bacillus subtilis [4]) of 100%. The inhibition of growth at 25 µg/mL (KB [5]) was 33%, the Activity (KB [6]) was 100% and the Activity (KB [7]) was 0%. The inhibition of growth at 12.5 µg/mL (KB [8]) was 0% and the inhibition of growth at 150 µg/mL (KB [9]) was 100%.
In the case of `COc1ccc2c(c1)CCc1c[nH]nc1-2`, the inhibition at 91 µg/mL (Bacillus subtilis [4]) is reported as 0%.
For `OCCOc1ccc2c(c1)CCc1cn[nH]c1-2`, the inhibition at 91 µg/mL (Bacillus subtilis [4]) was 0%.
`CN(C)CCOc1ccc2c3c(ccc2c1)C(=O)CCC3` showed an inhibition at 91 µg/mL (Bacillus subtilis [4]) of 100%.
Compound `CN(C)CCOc1ccc2c(c1)CCc1cn[nH]c1-2` has an inhibition at 91 µg/mL (Bacillus subtilis [4]) of 0%.
For `CCCCCCOc1ccc2c(c1)CCc1cn[nH]c1-2`, the inhibition at 45 µg/mL (Bacillus subtilis [10]) was 100% and the inhibition at 45 µg/mL (Pseudomonas fluorescens [11]) was 0%.
`CCCCCCCCCCCCCCCCOc1ccc2c(c1)CCc1cn[nH]c1-2` gave an inhibition at 91 µg/mL (Bacillus subtilis [4]) of 0%.
`CCCCCCOc1ccc2c(c1)CCc1cnn([C@@H]3O[C@H](COC(C)=O)[C@@H](OC(C)=O)[C@H](OC(C)=O)[C@H]3OC(C)=O)c1-2` showed an inhibition at 91 µg/mL (Pseudomonas fluorescens [2]) of 0%, an inhibition at 91 µg/mL (Bacillus subtilis [4]) of 100% and an inhibition at 50 µg/mL (Pseudomonas fluorescens [12]) of 0%. The inhibition at 50 µg/mL (Bacillus subtilis [13]) was 100%.
`COc1ccc2c(c1)CCc1cnn([C@@H]3O[C@H](COC(C)=O)[C@@H](OC(C)=O)[C@H](OC(C)=O)[C@H]3OC(C)=O)c1-2` gave an inhibition at 5 µg/mL (Bacillus subtilis [1]) of 100%, an inhibition at 91 µg/mL (Pseudomonas fluorescens [2]) of 100% and an inhibition at 91 µg/mL (Bacillus subtilis [4]) of 100%. It also gave an inhibition of growth at 50 µg/mL (KB [14]) of 100% and an Activity (KB [15]) of 0%.
`CCCCCCOc1ccc2c(c1)CCc1cnn(CCN(CCCl)CCCl)c1-2` was tested, and the inhibition at 5 µg/mL (Bacillus subtilis [1]) was 100%.
Work on `COc1ccc2c(c1)CCc1cnn(CCSCCCl)c1-2` yielded an inhibition at 45 µg/mL (Bacillus subtilis [10]) of 100%.
`CCCCCCOc1ccc2c(c1)CCc1cnoc1-2` gave an inhibition at 45 µg/mL (Bacillus subtilis [10]) of 0%, an inhibition at 91 µg/mL (Bacillus subtilis [4]) of 100% and an inhibition at 45 µg/mL (Pseudomonas fluorescens [11]) of 0%.
Work on `COc1ccc2c(c1)CC[C@]1(C)C(=O)NN=C21` yielded an inhibition at 91 µg/mL (Bacillus subtilis [4]) of 0%.
In the case of `CCCCCCOc1ccc2c(c1)CC[C@]1(C)C(=O)NN=C21`, the inhibition at 91 µg/mL (Pseudomonas fluorescens [2]) is reported as 0% and the inhibition at 91 µg/mL (Bacillus subtilis [4]) is reported as 0%.
In the case of `CCCCCCOc1ccc2c(c1)CCc1sc(N)nc1-2`, the “inhibition (INH)” value (Bacillus subtilis [1]) is reported as 100%, the Activity (KB [3]) is reported as 0% and the inhibition of growth at 25 µg/mL (KB [5]) is reported as 100%.
For `COc1ccc2c(c1)CCc1sc(N)nc1-2.Cl`, the inhibition at 90 µg/mL (Bacillus subtilis [16]) was 100%, the “inhibition (INH)” value (Bacillus subtilis [1]) was 47% and the inhibition at 90 µg/mL (Pseudomonas fluorescens [17]) was 25%. The inhibition at 5 µg/mL (Pseudomonas fluorescens [18]) was 0%.
For `CCCCCCOc1ccc2c(c1)CCc1sc(N)nc1-2.Cl`, the inhibition at 90 µg/mL (Bacillus subtilis [16]) was 60%, the “inhibition (INH)” value (Bacillus subtilis [1]) was 12% and the inhibition at 90 µg/mL (Pseudomonas fluorescens [17]) was 25%. The inhibition at 5 µg/mL (Pseudomonas fluorescens [18]) was 11%.
In the case of `COc1ccc2c3c(ccc2c1)-c1[nH]ncc1CC3`, the inhibition at 91 µg/mL (Bacillus subtilis [4]) is reported as 7.8% and the inhibition at 90 µg/mL (Pseudomonas fluorescens [17]) is reported as 48%.
`CN(C)CCOc1ccc2c3c(ccc2c1)-c1[nH]ncc1CC3` showed an inhibition at 91 µg/mL (Pseudomonas fluorescens [2]) of 0% and an inhibition at 91 µg/mL (Bacillus subtilis [4]) of 100%.
`CCCCCCOc1ccc2c3c(ccc2c1)-c1[nH]ncc1CC3` was tested, and the inhibition at 91 µg/mL (Bacillus subtilis [4]) was 100%.
`c1cnc2c(c1)-c1[nH]ncc1CC2` showed an inhibition at 10 µg/mL (Bacillus subtilis [19]) of 100% and an inhibition at 90 µg/mL (Pseudomonas fluorescens [17]) of 0%.
`C[n+]1cccc2c1CCc1cn[nH]c1-2` was tested, and the inhibition at 91 µg/mL (Bacillus subtilis [4]) was 50%.
For `COc1ccc2c(c1)CCc1cnn(CCN(CCCl)CCCl)c1-2`, the inhibition at 20 µg/mL (Bacillus subtilis [20]) was 100%.
